# Legend:
# [1] = Particle size (Z-ave) and polydispersity by dynamic light scattering; format: physicochemical; conditions: single non-pegylated phospholipid included during milling; data not shown
# C57Bl/6 mice = conditions: mouse, in vivo
# C57/BL6 mice = conditions: mouse, in vivo
Compound,effectiveness as sizing agent (aggregation of alum) [1],"ID97-specific CD4+ T cell response (CD154, IFN-γ, TNF, IL-2) (C57Bl/6 mice)",luciferase expression from RNA replicon (C57/BL6 mice)
CCCCCCCCCCCCCC(=O)OC[C@H](COP(=O)(O)OCCN)OC(=O)CCCCCCCCCCCCC [DMPE],not found to be effective sizing agents,,
Distearoylglycerophosphoethanolamine [DSPE],not found to be effective sizing agents,,
Poly(acrylic acid) [PAA],,low frequency,does not deliver and/or induce an expressible level

# Reference: patent US11173126B2, “Nanoalum particles comprising a PAA sizing agent” (priority 2016, dated 2021)
